Test results taken from patent publication US6348445B1, “Biologically active peptides with reduced toxicity in animals and a method for preparing same” (priority 1992, dated 2002).
*1 amine or outer side, *2 acyl side, *3 side chain or, on linkers, in order; H or OH if unused. Where a SMILES comes first, the peptide text is derived from it. The star is where a group is joined. X2 = CCCCCCCCCCCCC/C=C/[C@@H](O)[C@H](CO)N*; Suc = O=C(CCC(=O)[*:2])[*:1]; Heptanoyl = CCCCCCC(=O)*; Hexanoyl = CCCCCC(=O)*

Legend:
Assay type in all cases: cell-based
[1] = tested on: C. albicans
Excerpt: (§1) Table I, which follows, indicates the Minimal Inhibitory Concentration (MIC) in […] of various peptides against S.aureus strain ATCC 25923(S), P. aeruginosa strain ATCC 27853(P), E. coli ATCC strain 25922(E), and C. 4albicans (CA). […] The peptides are unsubstituted at the N-terminal; substituted with an acetyl group at the N-terminal, as indicated by Ac-; substituted with an octanoyl group at the N-terminal, as indicated by Oct-; substituted with spinogosine, as indicated by Sph-; substituted with a succinyl group, as indicated by Suc-; substituted with a hexanoyl group, as indicated by Hex-; substituted with a heptanoyl group, as indicated by Hep-; substituted with a valeryl group, as indicated by Val-; substituted with a myristryl group, as indicated by Myr-; or substituted with an ibuprofyl group, as indicated by Ibu-;
(§2) The procedure for the anti-bacterial assay is based upon the guidelines of the National Committee for Clinical Laboratory Standards, Document M7-T2, Volume 8, No. 8, 1988, which document is entirely incorporated herein by reference.
(§3) Stock solutions of peptides, with and without the appropriate substitutions, were prepared at a concentration of 512 μg/ml in sterile deionized distilled water and stored at −70° C.
(§4) The stock peptide solution was diluted in serial dilutions (1:2) down the wells of a microtiter plate so that the final concentrations of peptides in the wells were 0.25, 0.50, 1, 2, 4, 8, 16, 32, 64, 128 and 256 μg/ml. 1-5×10^5 CFUs/ml of either S. aureus ATCC 25923, E. coli ATCC 25922, P. aeruginosa ATCC 27853, or C. albicans, were added to the wells in full strength Mueller Hinton broth (BBL 11443) from a mid-log culture. The inoculum was standardized spectrophotometrically at 600 nm and was verified by colony counts. The plates were incubated for 16-20 hours at 37° C., and the minimal inhibitory concentration (MIC) for each peptide was determined. Minimal inhibitory concentration is defined as the lowest concentration of peptide which produces a clear well in the microtiter plate. The minimal inhibitory concentration of each of the peptides with and/or without the appropriate substitutions is given in Table I below.

[2] = tested on: E. coli ATCC strain 25922; assay: Minimal Inhibitory Concentration, microtiter broth dilution
Excerpt: as §1, §2, §3, §4
(§5) The in vitro anti-microbial activities of the methane sulfonate derivatives were determined according to the methods described in Examples 1 and 2. The activities against ATCC strains of S. aureus, E. coli, P. aeruginosa, and C. albicans, and the hemolysis of red blood cells were compared to the parent compound (Table IV). The activities for Compound 843 (Oct-SEQ ID NO:143) methane sulfonate against clinical strains of P. aeruginosa isolated from cystic fibrosis patients were compared to the parent compound (Table V). The activity for Compound 469 (Oct-SEQ ID NO:27) methane sulfonate against P. gingivalis was compared to the parent compound (Table VI).

[3] = tested on: P. aeruginosa strain ATCC 27853; conditions: ATCC 27853
Excerpt: as §1, §2, §3, §4, §5

Molecule: CCCCCCC(=O)N[C@@H](CC(C)C)C(=O)N[C@@H](CCCCN)C(=O)N[C@@H](CCCCN)C(=O)N[C@@H](CC(C)C)C(=O)N[C@@H](CC(C)C)C(=O)N[C@@H](CCCCN)C(=O)N[C@@H](CCCCN)C(=O)N[C@@H](CC(C)C)C(=O)N[C@@H](CCCCN)C(=O)N[C@@H](CCCCN)C(=O)N[C@@H](CC(C)C)C(N)=O [Hep-(SEQ ID NO: 110)-NH2] (Heptanoyl-LKKLLKKLKKL-NH2)
- Minimal Inhibitory Concentration CA [1]: 32 µg/mL
- Minimal Inhibitory Concentration E ([2]; ATCC strain 25922): 16 µg/mL
- Minimal Inhibitory Concentration P [3]: 4 µg/mL

Molecule: CCCCCC(=O)N[C@@H](CC(C)C)C(=O)N[C@@H](CCCCN)C(=O)N[C@@H](CCCCN)C(=O)N[C@@H](CC(C)C)C(=O)N[C@@H](CC(C)C)C(=O)N[C@@H](CCCCN)C(=O)N[C@@H](CCCCN)C(=O)N[C@@H](CC(C)C)C(=O)N[C@@H](CCCCN)C(=O)N[C@@H](CCCCN)C(=O)N[C@@H](CC(C)C)C(N)=O [Hex-(SEQ ID NO: 110)-NH2] (Hexanoyl-LKKLLKKLKKL-NH2)
- Minimal Inhibitory Concentration CA [1]: 64 µg/mL
- Minimal Inhibitory Concentration E ([2]; ATCC strain 25922): 16 µg/mL
- Minimal Inhibitory Concentration P [3]: 8 µg/mL

Molecule: CCCCCC(=O)N[C@H](C(=O)N[C@@H](C)C(=O)NCC(=O)N[C@@H](C)C(=O)N[C@H](C(=O)N[C@@H](C)C(=O)N[C@@H](CCCCN)C(=O)N[C@H](C(=O)N[C@@H](C)C(=O)NCC(=O)N[C@@H](CCCCN)C(=O)N[C@H](C(=O)N[C@@H](C)C(=O)N[C@@H](CCCCN)C(=O)N[C@H](C(=O)N[C@@H](C)C(=O)NCC(=O)N[C@@H](C)C(=O)N[C@H](C(=O)N[C@@H](C)C(N)=O)[C@@H](C)CC)[C@@H](C)CC)[C@@H](C)CC)[C@@H](C)CC)[C@@H](C)CC)[C@@H](C)CC [Hex-(SEQ ID NO: 150)-NH2] (Hexanoyl-IAGAIAKIAGKIAKIAGAIA-NH2)
- Minimal Inhibitory Concentration CA [1]: 128 µg/mL
- Minimal Inhibitory Concentration E ([2]; ATCC strain 25922): 32 µg/mL
- Minimal Inhibitory Concentration P [3]: 128 µg/mL

Molecule: CCCCCCCCCCCCC/C=C/[C@@H](O)[C@H](CO)NC(=O)CCC(=O)N[C@@H](CCCCN)C(=O)N[C@H](C(=O)N[C@@H](C)C(=O)NCC(=O)N[C@@H](CCCCN)C(=O)N[C@H](C(=O)N[C@@H](C)C(=O)N[C@@H](CCCCN)C(=O)N[C@H](C(=O)N[C@@H](C)C(=O)NCC(=O)N[C@@H](CCCCN)C(=O)N[C@H](C(=O)N[C@@H](C)C(=O)N[C@@H](CCCCN)C(=O)N[C@H](C(=O)N[C@@H](C)C(=O)NCC(=O)N[C@@H](CCCCN)C(=O)N[C@H](C(=O)N[C@@H](C)C(N)=O)[C@@H](C)CC)[C@@H](C)CC)[C@@H](C)CC)[C@@H](C)CC)[C@@H](C)CC)[C@@H](C)CC [Sph-Suc-(SEQ ID NO: 27)-NH2] ({X2-Suc}-KIAGKIAKIAGKIAKIAGKIA-NH2)
- Minimal Inhibitory Concentration E ([2]; ATCC strain 25922): 32 µg/mL
- Minimal Inhibitory Concentration P [3]: >256 µg/mL

Molecule: Ac-KIAGKIAKIAGKIAKIAGKIA-NH2 [Ac-(SEQ ID NO: 27)-NH2]
- Minimal Inhibitory Concentration E ([2]; ATCC strain 25922): 8 µg/mL
- Minimal Inhibitory Concentration P [3]: 128 µg/mL

Molecule: Ac-LKKLLKKLKKL-NH2 [Ac-(SEQ ID NO: 110)-NH2]
- Minimal Inhibitory Concentration E ([2]; ATCC strain 25922): 32,64 μg/ml
- Minimal Inhibitory Concentration P [3]: 8,16 μg/ml

Molecule: Ac-LLKKLKKLLKKL-NH2 [Ac-(SEQ ID NO: 113)-NH2]
- Minimal Inhibitory Concentration E ([2]; ATCC strain 25922): 64 µg/mL
- Minimal Inhibitory Concentration P [3]: 64 µg/mL

Molecule: H-KIAGKIAKIAGKIAKIAGKIA-OH [(SEQ ID NO: 27)-OH, (Lys Ile Ala Gly Lys Ile Ala)3]
- Minimal Inhibitory Concentration E ([2]; ATCC strain 25922): 8 µg/mL
- Minimal Inhibitory Concentration P [3]: 128 µg/mL

Molecule: H-LKKLLKKLKKL-NH2 [(SEQ ID NO: 110)-NH2]
- Minimal Inhibitory Concentration E ([2]; E. coli ATCC strain 25922, Table I): 64,128 μg/ml
- Minimal Inhibitory Concentration P [3]: 32,64 μg/ml

Molecule: H-LLKKLKKLLKKL-NH2 [(SEQ ID NO: 113)-NH2]
- Minimal Inhibitory Concentration E ([2]; ATCC strain 25922): 32 µg/mL
- Minimal Inhibitory Concentration P [3]: 8,16 μg/ml
